Article PMC9822155, “Synthesis and Antiproliferative Activity against Cancer Cells of Indole-Aryl-Amide Derivatives” (Molecules, 2022)

Legend:
[1] = tested on: I407 (human embryonic intestinal) cells; test: MTT viability assay, I407; type: cell-based; settings: 24 h, normal cells
Excerpt: (§1) To investigate whether the compounds have an antitumor activity, we performed in vitro viability assays against a panel of cancer cell lines: HT29 (human colorectal adenocarcinoma), HeLa (human cervical carcinoma), IGROV-1 (human ovarian carcinoma), MCF7 (human breast cancer), PC-3 (human prostate adenocarcinoma), and Jurkat J6 (human […]). The I407 (human embryonic intestinal) and 3T3 (mouse embryonic fibroblast) cells were used as controls. The growth inhibitory concentration was determined by incubating the cells with increasing concentrations (0.01–500 μM) of the compounds for 24 h. Data obtained from cell growth assays were elaborated to assess the concentration of cell viability (IC50) and selectivity indices (SI), and the results are shown in Table 2 and Table 3, respectively.
(§2) HT29 human colorectal adenocarcinoma cells, HeLa human cervix adenocarcinoma cells, MCF7 human breast adenocarcinoma cells, PC-3 human prostate adenocarcinoma cells, J6 Jurkat Clone E6-1 acute T cell leukemia, the healthy I407 human intestine cells, and mouse embryonic fibroblast 3T3 fibroblasts as controls cell lines were purchased from American Type Culture Collection (ATCC, Manassas, VA). The human ovarian cancer cell line IGROV1 has been kindly provided by Prof. Colnaghi (Istituto Nazionale Tumori (IRCCS) (Milano, Italy). Cells were cultured in RPMI 1640 medium (Labtek Eurobio, Milan, Italy), supplemented with 10% FCS (Euroclone, Milano, Italy) and 2 mM L-glutamine (Sigma-Aldrich, Milano, Italy), at 37 °C, and a 5% CO2 atmosphere. The compounds were dissolved in DMSO in a 30–40 mM stock solution. In cell treatments, the final DMSO concentration never exceeded 0.1%.
(§3) Cells were seeded at 1.5 × 10^4 cells/well in a 96-well culture plastic plate (Sarsted, Milan, Italy), and after 24 h of growth were exposed to increasing concentrations of each distinct compound (from 0.010 μM to 500 μM) solubilized in RPMI 1640 medium. MTT assay was performed according to the literature. In brief, after 24 h of treatment, the culture medium was replaced with 0.1 mL of 3-(4,5-dimethylthiazolyl-2)-2,5-diphenyltetrazolium bromide (MTT, Sigma-Aldrich, Milano, Italy) dissolved in PBS at the concentration of 0.2 mg/mL, and samples were incubated for 2 h at 37 °C. The absorbance at 570 nm was measured using a multiwell plate reader (Tecan, Männemorf, Switzerland), and data were analyzed by Prism GraphPad software, and expressed as IC50 μM.

[2] = tested on: PC-3 (human prostate adenocarcinoma) cells; test: MTT viability assay, PC3; type: cell-based
Excerpt: as §1, §2, §3

Jurkat J6 cells = test: MTT viability assay, Jurkat J6; type: cell-based, human
Excerpt: as §1, §2, §3

IC50 ([2]; Homo sapiens, MTT, 24 h): 0.39 ± 0.07 µM
IC50 (Jurkat J6 cells; Homo sapiens, Jurkat, MTT, 24 h): 0.37 ± 0.04 µM
SMILES: Nc1ccc(CN(Cc2ccc(O)cc2)C(=O)Cc2c[nH]c3ccccc23)cc1 [Compound 5]
IC50 [µM] I407 [1]: no activity
IC50 ([1]; Homo sapiens): > 500 µM
Selectivity Index IC503T3/ IC50PC3 ([2]; 3T3 normal cells as reference): 82.051
Selectivity Index IC503T3/ IC50J6 (Jurkat J6 cells; 3T3 normal cells as reference): 86.487
